This note sets out measurements from patent US12258344B2, “Azaaromatic amide derivatives for the treatment of cancer” (SHENZHEN FORWARD PHARMACEUTICALS CO., LTD., priority 2019, dated 2025).

In assay [1] the test system is NCI-H1975 (EGFR L858R/T790M double mutant). As to the kind of experiment: Test 1: EGFR L858R/T790M (EGFR double mutant) cell proliferation test. The settings on record: Homo sapiens; NCI-H1975 cells, 72 hours, Cell Titer-Glo. The format is cell-based. In general terms: Cellular ATP, detected with luciferase, serves as a proxy for viable cell number.
Assay [2] has as its target BaF3 (EGFR-V769insASV) (Homo sapiens, UniProt P00533, DUP767-769, cells depend on it). The assay is described as follows: Test 4: BaF3 (EGFR-V769insASV) cell proliferation test. The format is cell-based. To be noted: 72 hours, Cell Titer-Glo, read-out: Test 4 - IC50. The procedure:
Test 4: BaF3 (EGFR-V769insASV) Cell Proliferation Test
BaF3 (EGFR-V769insASV) was cultured in RPMI1640 medium containing 10% fetal bovine serum and 2 mM glutamine. The cells were grown at 37° C. in a humidified incubator with 5% CO2.
(§1) The number of viable cells in the culture was measured according to the protocol described in Promega's Cell Titer-Glo Luminescent cell Viability Assay (Promega catalog number #G7570). 90 μl of cells (3,000 cells/well) were cultured in growth medium in a Corning black transparent bottom 96-well plate, and cultured in a 5% CO2 humidified incubator at 37° C. overnight. The compound serially diluted in 100% DMSO was added to the cells using a pipette, and the cells were incubated for another 72 hours. 100 μl of the mixed Cell Titer-Glo reagent was added to the cells in the 96-well culture plate to lyse the cells and mix gently. Subsequently, the […] was detected on the Envision microplate detector to obtain the data of each compound. Finally, the data was input into a suitable software package (such as Prism) for curve fitting analysis.

Assay [3] has as its target BaF3 (EGFR-N771insH) (Homo sapiens, UniProt P00533, INS771H, cells depend on it). As to the kind of experiment: Test 5: BaF3 (EGFR-N771insH) cell proliferation test. Type of assay: cell-based. The settings on record: 72 hours, Cell Titer-Glo, read-out: Test 5 - IC50. As to the method: Test 5: BaF3 (EGFR-N771insH) Cell Proliferation Test
BaF3 (EGFR-N771insH) was cultured in RPMI1640 medium containing 10% fetal bovine serum and 2 mM glutamine. The cells were grown at 37° C. in a humidified incubator with 5% CO2.
as §1

Assay [4] has as its target BaF3 (EGFR-D770insNPG) (Homo sapiens, UniProt P00533, INS772GNP, cells depend on it). As to the kind of experiment: Test 6: BaF3 (EGFR-D770insNPG) cell proliferation test. The format is cell-based. The settings on record: 72 hours, Cell Titer-Glo, read-out: Test 6 - IC50. As to the method:
Test 6: BaF3 (EGFR-D770insNPG) Cell Proliferation Test
BaF3 (EGFR-D770insNPG) was cultured in RPMI1640 medium containing 10% fetal bovine serum and 2 mM glutamine. The cells were grown at 37° C. in a humidified incubator with 5% CO2.
as §1

The target in assay [5] is BaF3 (EGFR-S768I) (Homo sapiens, UniProt P00533, S768I, cells depend on it). The assay is described as follows: Test 7: BaF3 (EGFR-S768I) cell proliferation test. Type of assay: cell-based. The settings on record: 72 hours, Cell Titer-Glo, read-out: Test 7 - IC50. The procedure:
Test 7: BaF3 (EGFR-S768I) Cell Proliferation Test
BaF3 (EGFR-S768I) was cultured in RPMI1640 medium containing 10% fetal bovine serum and 2 mM glutamine. The cells were grown at 37° C. in a humidified incubator with 5% CO2.
as §1

Assay [6] deals with BaF3 (EGFR-L861Q) (Homo sapiens, UniProt P00533, L861Q, cells depend on it). As to the kind of experiment: Test 8: BaF3 (EGFR-L861Q) cell proliferation test. To be noted: 72 hours, Cell Titer-Glo, read-out: Test 8 - IC50. The format is cell-based. As to the method:
Test 8: BaF3 (EGFR-L8610) Cell Proliferation Test
BaF3 (EGFR-L861Q) was cultured in RPMI1640 medium containing 10% fetal bovine serum and 2 mM glutamine. The cells were grown at 37° C. in a humidified incubator with 5% CO2.
as §1

Assay [7] deals with BaF3 (HER2-G776insVC) (Homo sapiens, UniProt P04626, cells depend on it, form not given). The assay is described as follows: Test 11: BaF3 (HER2-G776insVC) cell proliferation test. To be noted: 72 hours, Cell Titer-Glo, read-out: Test 11 - IC50. The format is cell-based. The procedure:
Test 11: BaF3 (HER2-G776insVC) Cell Proliferation Test
The engineered cell line BaF3 (HER2-G776insVC) was constructed by the inventor himself (for the method of cell line construction, see Jingrui Jiang et al., Cancer Res. 2005 Oct. 1; 65 (19): 8964-74; Jacqulyne P. Robichaux et al., Nat Med. 2018 May; 24 (5): 638-646). BaF3 (HER2-G776insVC) was cultured in RPMI1640 medium containing 10% fetal bovine serum and 2 mM glutamine. The cells were grown at 37° C. in a humidified incubator with 5% CO2.
as §1

Assay [8] concerns the target T1, HER4 kinase (Homo sapiens, UniProt Q15303).
T1 construct: made in house
The assay is described as follows: Test 12: HER4 kinase screening test. To be noted: for inhibition at 1 µM: compound concentration 1 μM, read-out: 1 μM Inhibition rate (%); for inhibition at 10 µM: compound concentration 10 μM, read-out: 10 μM Inhibition rate (%). Type of assay: binding. The procedure:
Test 12: HER4 Kinase Screening Test
Most kinase activity tests were carried out by T7 phage expressing kinase expressed in E. coli system. After E. coli grew to the logarithmic phase, E. coli was infected with T7 bacteriophage (moi=0.4) and cultured with shaking at 32° C. until lysis (90-150 minutes). The lysate was filtered with a centrifuge (6,000 g) and filtration membrane (0.2 μm) to remove cell debris. Other individual kinases to be tested were expressed by HEK-293 cells and labeled with DNA for qPCR detection.
Next, the ligand magnetic beads were blocked with excess biotin and washed with blocking buffer (SeaBlock (Pierce), 1% BSA, 0.05% Tween-20, 1 mm DTT) to remove unbound ligand and reduce non-specific binding of phages. […] 100% DMSO was used to prepare the test compound at a concentration of 40×, which was directly diluted into the reaction system. All reactions were carried out on a polypropylene 384-well plate, and the final volume of the reaction system was 0.02 ml.

Bounds are passed on as bounds.

Chain of BaF3 (EGFR-S768I) (P00533 whole entry S768I): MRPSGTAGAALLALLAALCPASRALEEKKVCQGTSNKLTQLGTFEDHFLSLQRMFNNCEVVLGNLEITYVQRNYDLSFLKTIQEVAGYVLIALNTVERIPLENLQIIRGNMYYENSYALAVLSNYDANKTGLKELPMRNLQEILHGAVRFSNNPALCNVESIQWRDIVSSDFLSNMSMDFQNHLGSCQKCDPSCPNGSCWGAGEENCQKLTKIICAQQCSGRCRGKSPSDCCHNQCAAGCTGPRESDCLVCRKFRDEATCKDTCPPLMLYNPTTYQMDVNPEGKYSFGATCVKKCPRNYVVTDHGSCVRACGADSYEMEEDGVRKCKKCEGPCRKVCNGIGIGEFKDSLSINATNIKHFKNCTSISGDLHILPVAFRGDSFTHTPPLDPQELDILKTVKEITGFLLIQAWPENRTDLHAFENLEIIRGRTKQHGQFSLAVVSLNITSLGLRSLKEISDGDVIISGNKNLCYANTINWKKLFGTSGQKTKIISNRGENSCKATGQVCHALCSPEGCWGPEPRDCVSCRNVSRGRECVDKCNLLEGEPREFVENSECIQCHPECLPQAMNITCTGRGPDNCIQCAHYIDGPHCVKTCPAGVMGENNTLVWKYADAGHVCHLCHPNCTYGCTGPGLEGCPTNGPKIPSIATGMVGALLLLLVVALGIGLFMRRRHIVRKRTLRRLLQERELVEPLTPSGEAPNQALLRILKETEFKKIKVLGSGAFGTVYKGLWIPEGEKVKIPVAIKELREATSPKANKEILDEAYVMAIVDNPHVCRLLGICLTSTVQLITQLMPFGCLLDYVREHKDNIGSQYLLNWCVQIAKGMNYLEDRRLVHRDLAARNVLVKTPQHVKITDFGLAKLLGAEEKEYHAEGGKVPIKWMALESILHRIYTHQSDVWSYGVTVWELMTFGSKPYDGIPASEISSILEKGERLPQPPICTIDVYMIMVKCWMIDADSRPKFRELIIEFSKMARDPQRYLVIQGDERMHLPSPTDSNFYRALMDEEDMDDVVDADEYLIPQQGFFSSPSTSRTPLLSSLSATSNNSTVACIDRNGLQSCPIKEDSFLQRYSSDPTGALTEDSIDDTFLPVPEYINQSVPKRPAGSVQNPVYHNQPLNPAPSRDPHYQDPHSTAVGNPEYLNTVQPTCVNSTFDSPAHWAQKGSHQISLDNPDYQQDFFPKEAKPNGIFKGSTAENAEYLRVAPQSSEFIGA
Chain of BaF3 (EGFR-L861Q) (P00533 whole entry L861Q): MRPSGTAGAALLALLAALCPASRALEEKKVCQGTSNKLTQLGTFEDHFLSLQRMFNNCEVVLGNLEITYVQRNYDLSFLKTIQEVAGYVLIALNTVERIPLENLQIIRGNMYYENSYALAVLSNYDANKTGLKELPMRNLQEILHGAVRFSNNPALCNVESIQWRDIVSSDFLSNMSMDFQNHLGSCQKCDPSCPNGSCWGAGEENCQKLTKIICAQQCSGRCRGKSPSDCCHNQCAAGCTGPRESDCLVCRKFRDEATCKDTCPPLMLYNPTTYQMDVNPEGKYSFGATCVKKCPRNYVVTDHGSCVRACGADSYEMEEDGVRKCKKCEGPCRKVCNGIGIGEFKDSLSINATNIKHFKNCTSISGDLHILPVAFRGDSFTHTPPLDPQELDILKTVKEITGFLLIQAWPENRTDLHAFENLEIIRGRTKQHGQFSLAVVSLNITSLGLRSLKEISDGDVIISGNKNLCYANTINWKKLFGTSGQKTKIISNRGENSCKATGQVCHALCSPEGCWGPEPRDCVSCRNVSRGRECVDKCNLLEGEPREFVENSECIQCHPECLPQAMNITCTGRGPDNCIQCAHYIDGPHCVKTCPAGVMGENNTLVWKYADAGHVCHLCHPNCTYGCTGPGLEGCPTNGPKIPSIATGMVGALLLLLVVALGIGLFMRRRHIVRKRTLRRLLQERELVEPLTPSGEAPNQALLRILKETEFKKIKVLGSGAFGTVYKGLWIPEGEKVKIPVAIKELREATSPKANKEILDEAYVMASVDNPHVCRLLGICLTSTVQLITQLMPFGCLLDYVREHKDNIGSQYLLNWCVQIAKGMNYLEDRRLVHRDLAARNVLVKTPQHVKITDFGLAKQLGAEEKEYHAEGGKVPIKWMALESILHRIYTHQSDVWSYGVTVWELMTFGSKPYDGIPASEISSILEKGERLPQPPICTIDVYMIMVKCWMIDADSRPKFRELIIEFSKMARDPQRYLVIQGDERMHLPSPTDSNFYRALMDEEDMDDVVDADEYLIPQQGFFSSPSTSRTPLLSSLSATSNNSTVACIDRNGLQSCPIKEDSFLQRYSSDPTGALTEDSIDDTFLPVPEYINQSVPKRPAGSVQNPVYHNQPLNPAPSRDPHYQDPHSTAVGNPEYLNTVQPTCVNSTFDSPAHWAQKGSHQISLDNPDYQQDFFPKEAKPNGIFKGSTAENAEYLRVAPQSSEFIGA
Chain of BaF3 (EGFR-V769insASV) (P00533 with tags, fused parts or gaps DUP767-769): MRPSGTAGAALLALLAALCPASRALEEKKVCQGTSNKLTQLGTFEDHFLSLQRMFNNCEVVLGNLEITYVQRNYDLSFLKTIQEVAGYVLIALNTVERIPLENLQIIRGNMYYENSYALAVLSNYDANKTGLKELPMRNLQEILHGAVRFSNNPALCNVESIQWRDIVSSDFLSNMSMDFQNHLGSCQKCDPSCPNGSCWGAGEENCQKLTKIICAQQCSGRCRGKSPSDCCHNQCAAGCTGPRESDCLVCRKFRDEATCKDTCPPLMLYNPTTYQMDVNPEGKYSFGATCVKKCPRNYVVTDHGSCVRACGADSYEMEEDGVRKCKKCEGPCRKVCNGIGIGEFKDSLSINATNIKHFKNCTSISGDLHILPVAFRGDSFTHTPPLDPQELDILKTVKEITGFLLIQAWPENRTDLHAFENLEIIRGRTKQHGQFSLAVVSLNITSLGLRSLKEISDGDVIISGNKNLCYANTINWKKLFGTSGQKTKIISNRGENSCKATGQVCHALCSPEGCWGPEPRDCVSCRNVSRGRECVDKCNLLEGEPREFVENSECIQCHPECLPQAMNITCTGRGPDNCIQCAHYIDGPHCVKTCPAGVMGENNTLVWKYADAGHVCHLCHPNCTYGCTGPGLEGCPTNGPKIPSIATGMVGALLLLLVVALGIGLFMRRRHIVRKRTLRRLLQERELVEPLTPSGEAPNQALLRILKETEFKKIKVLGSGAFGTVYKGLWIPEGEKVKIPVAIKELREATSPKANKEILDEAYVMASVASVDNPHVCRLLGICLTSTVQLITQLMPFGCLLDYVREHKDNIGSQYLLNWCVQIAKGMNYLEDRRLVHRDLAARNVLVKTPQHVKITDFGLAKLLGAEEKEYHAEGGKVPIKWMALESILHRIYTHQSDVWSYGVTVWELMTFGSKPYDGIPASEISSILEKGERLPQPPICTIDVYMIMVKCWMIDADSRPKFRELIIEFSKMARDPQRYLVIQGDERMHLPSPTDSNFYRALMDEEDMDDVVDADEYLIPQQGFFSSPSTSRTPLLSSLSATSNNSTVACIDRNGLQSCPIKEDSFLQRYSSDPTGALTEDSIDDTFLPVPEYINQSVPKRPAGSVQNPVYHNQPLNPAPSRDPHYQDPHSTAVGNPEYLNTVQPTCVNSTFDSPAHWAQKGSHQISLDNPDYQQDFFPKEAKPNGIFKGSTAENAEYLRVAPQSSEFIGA
Chain of BaF3 (EGFR-D770insNPG) (P00533 with tags, fused parts or gaps INS772GNP): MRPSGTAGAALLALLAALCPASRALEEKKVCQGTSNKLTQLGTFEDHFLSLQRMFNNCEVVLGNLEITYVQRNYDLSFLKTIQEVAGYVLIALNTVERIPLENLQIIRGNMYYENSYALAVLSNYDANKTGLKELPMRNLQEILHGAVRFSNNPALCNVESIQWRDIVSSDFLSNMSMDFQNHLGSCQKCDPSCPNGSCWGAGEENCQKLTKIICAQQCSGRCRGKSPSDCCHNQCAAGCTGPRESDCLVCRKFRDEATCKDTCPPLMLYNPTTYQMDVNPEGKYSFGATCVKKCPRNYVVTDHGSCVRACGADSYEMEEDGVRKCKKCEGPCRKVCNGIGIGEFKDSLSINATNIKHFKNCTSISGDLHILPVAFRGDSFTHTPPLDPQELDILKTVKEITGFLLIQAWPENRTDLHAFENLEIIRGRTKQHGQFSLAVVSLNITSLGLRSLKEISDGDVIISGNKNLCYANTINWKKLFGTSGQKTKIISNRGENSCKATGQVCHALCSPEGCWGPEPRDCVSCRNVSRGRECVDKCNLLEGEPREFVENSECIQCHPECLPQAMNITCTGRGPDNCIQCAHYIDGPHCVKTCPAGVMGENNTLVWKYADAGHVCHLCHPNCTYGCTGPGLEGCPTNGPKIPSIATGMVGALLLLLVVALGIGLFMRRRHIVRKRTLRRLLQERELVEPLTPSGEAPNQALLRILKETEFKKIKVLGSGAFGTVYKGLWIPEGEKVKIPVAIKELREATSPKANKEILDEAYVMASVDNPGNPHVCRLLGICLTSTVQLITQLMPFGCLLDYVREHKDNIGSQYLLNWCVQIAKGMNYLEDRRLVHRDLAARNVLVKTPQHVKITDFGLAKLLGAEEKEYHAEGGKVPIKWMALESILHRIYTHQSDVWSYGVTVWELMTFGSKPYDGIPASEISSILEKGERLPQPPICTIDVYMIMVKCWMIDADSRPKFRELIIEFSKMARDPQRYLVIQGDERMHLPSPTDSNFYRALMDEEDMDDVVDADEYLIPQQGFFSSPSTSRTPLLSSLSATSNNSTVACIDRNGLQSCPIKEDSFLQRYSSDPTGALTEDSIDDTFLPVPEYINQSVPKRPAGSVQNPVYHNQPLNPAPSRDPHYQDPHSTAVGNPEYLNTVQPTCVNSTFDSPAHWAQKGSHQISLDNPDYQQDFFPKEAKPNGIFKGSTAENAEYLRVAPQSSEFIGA

As for `C=CC(=O)Nc1cc(Nc2ncnc(-c3cn(C)c4ccc(F)cc34)n2)c(OC)cc1N(C)CCN(C)C` [Example 11], in assay [1], the IC50 is 13.5 nM. The GI50 in assay [2] amounted to 47.9 nM; in assay [3], 9.19 nM; in assay [4], 10.2 nM; in assay [5], 38.1 nM; in assay [6], 22.5 nM; in assay [7], 1.07 nM. Further, in assay [8], the inhibition at 1 µM is greater than 95%. Further, the inhibition at 10 µM in assay [8] is greater than 95%.

The compound `C=CC(=O)Nc1cc(Nc2ncnc(-c3cn(C)c4ccc(F)cc34)n2)c(OC(F)F)cc1N(C)CCN(C)C` [Example 14, N-(4-(difluoromethoxy)-2-((2-(dimethylamino)ethyl)(methyl)amino)-5-((4-(5-fluoro-1-methyl-1H-indol-3-yl)-1,3,5-triazin-2-yl)amino)phenyl)acrylamide] came in with an IC50 in assay [1] of 16.8 nM. In addition, the GI50 in assay [2] came out at 25.9 nM; in assay [3], 9.21 nM; in assay [4] it was 10 nM; in assay [5] it was 8.91 nM; in assay [6], 4.58 nM; in assay [7], 1.95 nM. The inhibition at 1 µM in assay [8] was greater than 98%. Moreover, the inhibition at 10 µM in assay [8] is greater than 98%.

In the case of `C=CC(=O)Nc1cc(Nc2ncnc(-c3cn(C)c4ccc(F)cc34)n2)c(OCC(F)(F)F)cc1N(C)CCN(C)C` [Example 15, N-(2-((2-(dimethylamino)ethyl)(methyl)amino)-5-((4-(5-fluoro-1-methyl-1H-indol-3-yl)-1,3,5-triazin-2-yl)amino)-4-(2,2,2-trifluoroethoxy)phenyl)acrylamide], the IC50 in assay [1] worked out at 12.7 nM. Besides, the GI50 in assay [2] worked out at 45 nM; in assay [3] it was 7.66 nM; in assay [4] it was 8.87 nM; in assay [5], 7.41 nM; in assay [6] it was 3.87 nM; in assay [7], 1.83 nM. Further, the inhibition at 1 µM in assay [8] is greater than 98%. Moreover, the inhibition at 10 µM in assay [8] is greater than 98%.

Usually IC50 stands for the midpoint of a concentration-inhibition curve. The low end stands for higher potency, the high end for lower potency. The term inhibition denotes the drop in the measured response relative to a control, in per cent.
